The record followed here is paper PMC9411606, “Control cell migration by engineering integrin ligand assembly” (Nature Communications, 2022).

What all share (format): cell-based, human
Test [1] relates to HuH-7 cells. Kind of test: Cell adhesion assay, HuH-7. The note with it: FFFIKLLI pre-coated dishes. The protocol: The 96-well microplates wells were coated with peptide assemblies (the concentration of FFFIKLLI was kept at 100 μM constantly) for 12 hr at 37 °C before blocked with the Blocking Buffer (2% BSA, 1 mM CaCI2 and 1 mM MnCI2 in PBS) for 1 hr at 37 °C. Cells were collected from culture dishes and suspended in the Blocking Buffer containing anti-laminin-5 (P3H9-2, MAB1947, Chemicon, 5 μg/ml), anti-fibronectin (IST-9, ab6328, Abcam, 20 μg/ml) or IgG isotype control (20 μg/ml, Abcam) before immediately seeded to the coated well (20,000 cells/well) and allowed to incubate at 37 °C for 1 h. The wells were washed for three times with the Blocking Buffer and the phase-contrast images were captured by IncucyteS3 (Essen Bioscience) with a 10× objective.

The test system of test [2] is paxillin Y118 phosphorylation in HuH-7 cells. In words: Western blotting Paxillin / pY118 Paxillin. As for the experimental part: Protein lysates were prepared in ice-cold RIPA lysis, and extraction buffer (Thermo Scientific) supplemented with 1% Halt Protease Inhibitor (Thermo Scientific) and 1% Halt Phosphatase inhibitor (Thermo Scientific). Cells were scraped off from the culture surface using a cold plastic cell scraper, and the cell suspension was then gently transferred into a pre-cooled microcentrifuge tube and maintained on ice for 30 min with constant agitation before centrifuged at 21000 × g for 20 min. The supernatant was then transferred to a new tube, and the protein concentration of the supernatant was quantified according to the Pierce™ BCA Protein Assay Kit (Thermo Scientific). The rest of the supernatant was mixed with 4x laemmli sample buffer (Bio-Rad) in a 1:3 ratio and boiled at 100 °C for 10 min. Lysates can be aliquoted and stored at −80 °C freezer. When running the gel, 30 μg of protein was loaded into each well of the SDS-PAGE gels, along with a molecular weight marker (Bio-Rad). The gel was run for 2 hr at constantly 100 V to separate the proteins based on the molecular weight. The proteins were then transferred from the SDS-gel to a PVDF membrane (Bio-Rad) using a Transfer-blot turbo system (Bio-Rad). Once the membranes were blocked with Blocking One P solution (Nacalai) for 20 min at room temperature with gentle shaking, they were probed with antibodies against GAPDH (6C5, ab8245, Abcam, 1:1000), integrin beta 1 (12G10, ab30394, Abcam, 1:100), integrin alpha 3 (ASC-1, MA5-28565, Invitrogen, 1:100), integrin alpha 6 (EPR18124, ab191551, Abcam, 1:200), Phospho-Myosin Light Chain 2 (Thr18/Ser19)(pMLC, #3647, Cell Signaling Technology, 1:200) diluted in Tris-Buffered Saline containing 0.1% Tween-20 and 5% Blocking one P solution and the membrane was incubated in the dark for overnight at 4 °C with gentle shaking. The unbounded antibodies were washed out with tris-buffered saline (TBS) containing 0.1% Tween-20 (TBS- T) for 10 min for at least 6 times. […] Protein bands were quantified by measuring peak areas using ImageJ. […]
A general note: In western blotting, separated proteins are transferred to a membrane and probed.

For test [3], the system named is HuH-7 cells. Kind of test: Cell spreading evaluation (phalloidin staining). The protocol:
All microscope imaging was performed with a Zeiss LSM 780 or Olympus SD-OSR. To assess the F-actin organization after certain treatments, cells were seeded on a glass-bottom culture dish (D11130H, Matsunami). After culture with the peptides, cells were fixed with 4% paraformaldehyde phosphate buffer solution (PFA, 30525-89-4, Wako) for 10 min at room temperature, washed, and permeabilized with 0.1% Triton X-100 (Sigma) in PBS for 15 min. Cells were washed with DPBS twice and incubated with ActinRed (Rhodamine-conjugated phalloidin, R37112, Invitrogen) or ActinGreen (Alexa-Fluor-488-conjugated phalloidin, R37110, Invitrogen) for 15 min at room temperature. Cells were washed with DPBS before being imaged. Morphological characteristics, including cell spreading area and perimeter area ratio, were quantified by Image J.

Test [4] relates to HuH-7 cells. In words: Random cell migration assay. As for the experimental part: HuH-7 cells were labeled with fluorescent protein fusion constructs or Hoechst 33342. After being treated with or without the peptides for 12 hr, the cells were tracked with a 20x/0.8 Plan-Apochromat objective for 6 h. The centroids of labeled cells were tracked using the TrackMate plugin (https://imagej.net/plugins/trackmate/) in ImageJ[44]. A custom MATLAB script generated by a person was applied to reconstruct the cell migration trajectory. […]
The directionality of the cell movement was described by the persistence index and the persistent time, the persistence index was defined by the ratio of the vectorial distance (the distance between the origin and the endpoint of the movement) and the length of the total path and the persistent time is defined as the time it takes for the cell to change the initial direction by 90°[45].

[5] abbreviates: relative to Ctrl = 1, 12 hr, representative blot.
[6] abbreviates: vin258-transfected HuH-7, 12 hr, n = 51 cells, mean.

Regarding “FFFIKLLI [assembling ligand: FFF coupled to the N-terminus of IKLLI; self-assembles into nanofilaments]”, the attached cells in the test with HuH-7 cells [1] (IgG, n = 30) is 171.2 Counts / mm2; in the test with HuH-7 cells [1] (anti-fibronectin IST-9, n = 30), 162.2 Counts / mm2; in the test with HuH-7 cells [1] (anti-laminin-5 P3H9-2, n = 30), 157.4 Counts / mm2. Moreover, the “paxillin Y118 phosphorylation” value in test [2] (HuH-7, 12 hr, n = 9) is listed as “reduction”. In test [2] (setting [5]), this sequence returned a Paxillin band of 1.01. The sequence also had a pY118Paxillin band in test [2] (setting [5]) of 0.34. Besides, the “Perimeter / Area” value was 0.1130 µm-1 in the test with HuH-7 cells [3] (Tiam1/Rac1-preactivated HuH-7, 12 hr, n = 64 cells, p = 0.5635 vs Ctrl) and 0.2881 µm-1 with HuH-7 cells [3] (setting [6]). For the same sequence, the Spreading area in the test on HuH-7 cells [3] (Tiam1/Rac1-preactivated HuH-7, 12 hr, n = 64 cells, p = 0.8317 vs Ctrl) was found to be 4496 µm2; in the test on HuH-7 cells [3] (glass, FN or LM-5 coated dish (order not readable), 12 hr, value 2) it was 1802 µm2; in the test on HuH-7 cells [3] (glass, FN or LM-5 coated dish (order not readable), 12 hr, value 3), 1763 µm2; with HuH-7 cells [3] (setting [6]), 2047 µm2. The “cell motility, vin258-expressing cells” value with HuH-7 cells [4] (HuH-7 expressing vin258, 12 h) is recorded as “suppression effect on cell motility was remained”. The migration speed is 0.3729 µm/min with HuH-7 cells [4] (Tiam1/Rac1-activated HuH-7, n = 230, 232 cells, p = 0.4508 vs Ctrl) and 0.140 µm/min with HuH-7 cells [4] (vin258-transfected HuH-7, mean, n = 169, 176 cells).
